Measured values: the supplement of paper PMC10307832

How the values were obtained:
Experiment in all cases: relative viability (nuclei count vs DMSO), 5 days (fraction); higher = more cells survive
NCI-H1651 = system: NCI-H1651
Procedure, shortened: (§1)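 Dosing by pin tool came one day after lung cancer cell lines were seeded in 1536-well plates, using either one drug or a fixed anchor-drug dose plus five library-drug doses (not always all listed) in √10 steps. After 5 days, nuclei were counted on 4× images. Relative viability is treated-well nuclei count divided by vehicle-well nuclei count, and values are medians of duplicate plates.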

SK-LU-1 = system: SK-LU-1
Procedure, shortened: as §1

COR-L 105 = system: COR-L 105
Procedure, shortened: as §1

NCI-H2085 = system: NCI-H2085
Procedure, shortened: as §1

PC-3 [JPC-3] = system: PC-3 [JPC-3]
Procedure, shortened: as §1

NCI-H1944 = system: NCI-H1944
Procedure, shortened: as §1

NCI-H1793 = system: NCI-H1793
Procedure, shortened: as §1

EMC-BAC-2 = system: EMC-BAC-2
Procedure, shortened: as §1

NCI-H1437 = system: NCI-H1437
Procedure, shortened: as §1

LK-2 = system: LK-2
Procedure, shortened: as §1

NCI-H2228 = system: NCI-H2228
Procedure, shortened: as §1

H3255 = system: H3255
Procedure, shortened: as §1

NCI-H2087 = system: NCI-H2087
Procedure, shortened: as §1

NCI-H1755 = system: NCI-H1755
Procedure, shortened: as §1

CAL-12T = system: CAL-12T
Procedure, shortened: as §1

NCI-H1395 = system: NCI-H1395
Procedure, shortened: as §1

NCI-H661 = system: NCI-H661
Procedure, shortened: as §1

LXF-289 = system: LXF-289
Procedure, shortened: as §1

NCI-H2347 = system: NCI-H2347
Procedure, shortened: as §1

EKVX = system: EKVX
Procedure, shortened: as §1

NCI-H1915 = system: NCI-H1915
Procedure, shortened: as §1

LC-2-ad = system: LC-2-ad
Procedure, shortened: as §1

SK-MES-1 = system: SK-MES-1
Procedure, shortened: as §1

O=C(O)CCCCC(CCSCc1ccccc1)SCc1ccccc1 (centres undefined) [CPI-613] + Cc1nc(NC(=O)N2CCC[C@H]2C(N)=O)sc1-c1ccnc(C(C)(C)C(F)(F)F)c1 [Alpelisib] (partner 2 µM)
relative viability (NCI-H1651; first compound 5 µM): 0.969 | relative viability (NCI-H1651; first compound 15.81 µM): 0.895 | relative viability (NCI-H1651; first compound 50 µM): 0.967 | relative viability (NCI-H1651; first compound 158.11 µM): 0.41 | relative viability (NCI-H1651; first compound 500 µM): 0.116 | relative viability (SK-LU-1; first compound 5 µM): 1.05 | relative viability (SK-LU-1; first compound 15.81 µM): 0.849 | relative viability (SK-LU-1; first compound 50 µM): 0.57 | relative viability (SK-LU-1; first compound 158.11 µM): 0.175 | relative viability (SK-LU-1; first compound 500 µM): 0.114 | relative viability (COR-L 105; first compound 5 µM): 0.888 | relative viability (COR-L 105; first compound 15.81 µM): 1.11 | relative viability (COR-L 105; first compound 50 µM): 0.909 | relative viability (COR-L 105; first compound 158.11 µM): 0.476 | relative viability (COR-L 105; first compound 500 µM): 0.161 | relative viability (NCI-H2085; first compound 5 µM): 1.01 | relative viability (NCI-H2085; first compound 15.81 µM): 0.927 | relative viability (NCI-H2085; first compound 50 µM): 0.906 | relative viability (NCI-H2085; first compound 158.11 µM): 0.591 | relative viability (NCI-H2085; first compound 500 µM): 0.242 | relative viability (PC-3 [JPC-3]; first compound 5 µM): 1.05 | relative viability (PC-3 [JPC-3]; first compound 15.81 µM): 0.943 | relative viability (PC-3 [JPC-3]; first compound 50 µM): 0.934 | relative viability (PC-3 [JPC-3]; first compound 158.11 µM): 0.921 | relative viability (PC-3 [JPC-3]; first compound 500 µM): 0.903 | relative viability (NCI-H1944; first compound 5 µM): 0.841 | relative viability (NCI-H1944; first compound 15.81 µM): 0.843 | relative viability (NCI-H1944; first compound 50 µM): 0.778 | relative viability (NCI-H1944; first compound 158.11 µM): 0.803 | relative viability (NCI-H1944; first compound 500 µM): 0.743 | relative viability (NCI-H1793; first compound 5 µM): 0.671 | relative viability (NCI-H1793; first compound 50 µM): 0.66 | relative viability (NCI-H1793; first compound 158.11 µM): 0.273 | relative viability (NCI-H1793; first compound 500 µM): 0.109 | relative viability (EMC-BAC-2; first compound 5 µM): 0.713 | relative viability (EMC-BAC-2; first compound 15.81 µM): 0.702 | relative viability (EMC-BAC-2; first compound 50 µM): 0.72 | relative viability (EMC-BAC-2; first compound 158.11 µM): 0.68 | relative viability (EMC-BAC-2; first compound 500 µM): 0.119 | relative viability (NCI-H1437; first compound 5 µM): 0.944 | relative viability (NCI-H1437; first compound 15.81 µM): 0.961 | relative viability (NCI-H1437; first compound 50 µM): 1.03 | relative viability (NCI-H1437; first compound 158.11 µM): 0.16 | relative viability (NCI-H1437; first compound 500 µM): 0.0244 | relative viability (LK-2; first compound 5 µM): 1.01 | relative viability (LK-2; first compound 15.81 µM): 0.98 | relative viability (LK-2; first compound 50 µM): 1.06 | relative viability (LK-2; first compound 158.11 µM): 1.16 | relative viability (LK-2; first compound 500 µM): 0.82 | relative viability (NCI-H2228; first compound 5 µM): 0.799 | relative viability (NCI-H2228; first compound 15.81 µM): 0.6 | relative viability (NCI-H2228; first compound 50 µM): 0.547 | relative viability (NCI-H2228; first compound 158.11 µM): 0.344 | relative viability (NCI-H2228; first compound 500 µM): 0.0239 | relative viability (H3255; first compound 5 µM): 0.695 | relative viability (H3255; first compound 15.81 µM): 0.576 | relative viability (H3255; first compound 50 µM): 0.695 | relative viability (H3255; first compound 158.11 µM): 0.639 | relative viability (H3255; first compound 500 µM): 0.672 | relative viability (NCI-H2087; first compound 5 µM): 1.14 | relative viability (NCI-H2087; first compound 15.81 µM): 0.95 | relative viability (NCI-H2087; first compound 50 µM): 0.95 | relative viability (NCI-H2087; first compound 158.11 µM): 0.0725 | relative viability (NCI-H2087; first compound 500 µM): 0.0158 | relative viability (NCI-H1755; first compound 5 µM): 0.91 | relative viability (NCI-H1755; first compound 15.81 µM): 0.89 | relative viability (NCI-H1755; first compound 50 µM): 0.837 | relative viability (NCI-H1755; first compound 158.11 µM): 0.769 | relative viability (NCI-H1755; first compound 500 µM): 0.251 | relative viability (CAL-12T; first compound 5 µM): 1 | relative viability (CAL-12T; first compound 15.81 µM): 1.11 | relative viability (CAL-12T; first compound 50 µM): 1.14 | relative viability (CAL-12T; first compound 158.11 µM): 0.0352 | relative viability (CAL-12T; first compound 500 µM): 0.0082 | relative viability (NCI-H1395; first compound 5 µM): 0.988 | relative viability (NCI-H1395; first compound 15.81 µM): 1.08 | relative viability (NCI-H1395; first compound 50 µM): 1.27 | relative viability (NCI-H1395; first compound 158.11 µM): 0.99 | relative viability (NCI-H1395; first compound 500 µM): 0.75 | relative viability (NCI-H661; first compound 5 µM): 0.68 | relative viability (NCI-H661; first compound 15.81 µM): 0.515 | relative viability (NCI-H661; first compound 50 µM): 0.939 | relative viability (NCI-H661; first compound 158.11 µM): 0.594 | relative viability (NCI-H661; first compound 500 µM): 0.608 | relative viability (LXF-289; first compound 5 µM): 1.02 | relative viability (LXF-289; first compound 15.81 µM): 0.961 | relative viability (LXF-289; first compound 50 µM): 0.988 | relative viability (LXF-289; first compound 158.11 µM): 0.318 | relative viability (LXF-289; first compound 500 µM): 0.0306 | relative viability (NCI-H2347; first compound 5 µM): 1.02 | relative viability (NCI-H2347; first compound 15.81 µM): 0.963 | relative viability (NCI-H2347; first compound 50 µM): 0.959 | relative viability (NCI-H2347; first compound 158.11 µM): 1.05 | relative viability (NCI-H2347; first compound 500 µM): 0.973 | relative viability (EKVX; first compound 5 µM): 0.802 | relative viability (EKVX; first compound 15.81 µM): 0.814 | relative viability (EKVX; first compound 50 µM): 0.903 | relative viability (EKVX; first compound 158.11 µM): 0.857 | relative viability (EKVX; first compound 500 µM): 0.965 | relative viability (NCI-H1915; first compound 5 µM): 1.12 | relative viability (NCI-H1915; first compound 15.81 µM): 1.04 | relative viability (NCI-H1915; first compound 50 µM): 1.01 | relative viability (NCI-H1915; first compound 158.11 µM): 0.925 | relative viability (NCI-H1915; first compound 500 µM): 0.926 | relative viability (LC-2-ad; first compound 5 µM): 0.83 | relative viability (LC-2-ad; first compound 15.81 µM): 0.818 | relative viability (LC-2-ad; first compound 50 µM): 0.8 | relative viability (LC-2-ad; first compound 158.11 µM): 0.201 | relative viability (LC-2-ad; first compound 500 µM): 0.006 | relative viability (SK-MES-1; first compound 5 µM): 0.894 | relative viability (SK-MES-1; first compound 15.81 µM): 0.982 | relative viability (SK-MES-1; first compound 50 µM): 0.784 | relative viability (SK-MES-1; first compound 158.11 µM): 0.724 | relative viability (SK-MES-1; first compound 500 µM): 0.785
